Assays:
[1] = target: T1, hAT1R (Homo sapiens, UniProt P30556); experiment: BRET Gq biosensor assay, agonist response, HEK293 cells; assay type: cell-based; details: section of the 42nd table directly before the BRET P63 section
T1 sequence (P30556 1-359): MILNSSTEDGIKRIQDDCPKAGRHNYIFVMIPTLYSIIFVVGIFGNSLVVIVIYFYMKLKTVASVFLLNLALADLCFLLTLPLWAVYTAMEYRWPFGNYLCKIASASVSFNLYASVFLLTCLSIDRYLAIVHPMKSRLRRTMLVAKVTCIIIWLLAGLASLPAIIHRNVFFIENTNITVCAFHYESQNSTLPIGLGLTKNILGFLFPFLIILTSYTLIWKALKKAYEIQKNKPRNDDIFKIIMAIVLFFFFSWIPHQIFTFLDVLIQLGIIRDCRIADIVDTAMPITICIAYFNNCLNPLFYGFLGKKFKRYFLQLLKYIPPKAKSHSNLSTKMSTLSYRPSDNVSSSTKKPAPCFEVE
Experimental: BRET β-arrestin2 and Gq Activation Assays
In another aspect of the invention, association of the ATIR with signaling proteins is assessed using bioluminescence resonance energy transfer assays (Stephane Angers, Ali Salahpour et al. 2002). This technology measures the association between bioluminescent and fluorescent protein tags.
Several of the plasmid constructs used in BRET experiments were previously described. Briefly, the coding sequence of β-arrestin2 was fused to Renilla luciferase II to generate β-arrestin2-Rluc (Quoyer, Janz et al. 2013). The membrane targeting motif from K-Ras, CAAX motif (GKKKKKKSKTKCVIM), was fused to Renilla GFP to create rGFP-CAAX plasmid (Namkung Y et al., Nat Commun (2016) 7, 12178). The Renilla luciferase II was inserted in the Gaq protein to generate Gaq-Rluc (Breton, Sauvageau et al. 2010). The Gγ1 protein was tagged with GFP10 to obtain GFP-Gyl, using the same strategy described previously for GFP-Gy2 (Gales, Rebois et al. 2005). The Gaq binding domain of the p63RhoGEF protein (amino acids 295-502) was fused to Renilla luciferase II to create P63-Rluc. Finally, the hAT1R plasmid construct encoding the receptor was generated by optimizing the coding sequence of human angiotensin II receptor (GeneOptimizer from ThermoFisher), and adding an artificial cleavable signal peptide from bovine prolactin ([…]) in N-terminus of the receptor to increase cell surface expression.
Gq Biosensor Assay HEK293 cells were cultured in DMEM supplemented with Penicillin-Streptomycin and 10% fetal bovine serum. Two days before the BRET experiment, HEK293 cells were transfected with hAT1R expression plasmid (200 ng/well) as well as Gaq-Rluc (100 ng/well), Gβ1 (375 ng/well) and GFP-Gγ1 (625 ng/well), using linear polyethylenimine 25 kDa (PEI) at a PEI:DNA ratio of 3:1. Transfected cells were directly seeded in 96-well plates, at a density of 35 000 cells per well, and maintained in culture for the next 48 h.
BRET experiments were carried out subsequently using the following procedures: cells were washed once with Tyrode's buffer (137 mM NaCl, 1 mM CaCl2, 0.9 mM KCl, […], 3.6 mM NaH2PO4, 5.5 mM glucose, 12 mM NaHCO3, and 25 mM HEPES, pH 7.4) and 90 μl of Tyrode's buffer was added to each well. Cells were equilibrated in their new buffer at room temperature for at least 30 minutes. Following the equilibration period, the coelenterazine substrate was first added to the cells, 10 μl per well of a 10×solution (prolume purple coelenterazine at a final concentration of 2 μM), immediately followed by compound addition using the HP D300 digital dispenser from Tecan (10 singlicate concentrations). Cells were incubated for 5 min at room temperature and BRET readings were then collected using a Synergy Neo Multi-Mode reader from BioTek with BRET2 filters 410/515, to record agonist response. […] A second reading was collected 5 min after this second addition, using the Synergy Neo Multi-Mode reader from BioTek with BRET2 filters 410/515, to record antagonist response. The BRET signal was determined by calculating the ratio of the light emitted by GFP (515 nm) over the light emitted by the Rluc (410 nm). To analyze agonist response, BRET signal values were converted into percentage of activation using the non-stimulated control as 0% and AngII maximal response as 100%. Sigmoidal concentration-response curves were generated with those normalized values using a 4-parameter logistic equation (IDBS ActivityBase software), to determine EC50 of the different compounds. In the case of antagonist response analysis, BRET signal values were converted into percentage of inhibition using the fixed dose of AngII (corresponding to the EC50) as 0% and non-stimulated control as 100%. Sigmoidal concentration-response curves were generated with those normalized values using a 4-parameter logistic equation (IDBS ActivityBase software), to determine IC50 of the different compounds.

[2] = target: T2, AGTR1 (Homo sapiens, UniProt P30556); experiment: DiscoveRx β-arrestin2 recruitment assay (enzyme complementation, Pathunter CHO-K1 AGTR1 β-arrestin cell line); assay type: cell-based; details: DiscoveRx β-arrestin2 recruitment; for DiscoveRx β-arrestin2 Ymax (%): maximal response
T2 construct: host or cells: Pathunter CHO-K1 AGTR1 β-arrestin cell line (CHO-K1)
T2 sequence (P30556 1-359): T1 sequence (P30556 1-359)
Procedure, shortened: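 CHO-K1 cells expressing AGTR1 with β-arrestin2 enzyme-complementation reporter, plated 14-16 h ahead in 1% serum medium, then exposed to compounds for 90 min at 37° C. Chemiluminescence read after 1 h detection. EC50 (agonist) or IC50 (antagonist) from 4-parameter logistic fit; activity as percentage of All maximal effect.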

[3] = target: T1, hAT1R; experiment: cell-based; details: section of the 42nd table ending at r951, example numbering restarts after the DiscoveRx section; read-out: β-arrestin2 EC50
[4] = target: T1, hAT1R; experiment: cell-based; details: agonist mode; for EC50: read-out: BRET P63 EC50
[5] = target: T2, AGTR1; experiment: DiscoveRx IP1 accumulation assay (HTRF), agonist mode, Pathunter CHO-K1 AGTR1 β-arrestin cell line; assay type: cell-based; details: for EC50: read-out: IP-1 EC50
Procedure, shortened: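 Agonist mode in CHO-K1 AGTR1 β-arrestin cells plated 14-16 h before; compounds at varying concentrations for 90 min at 37° C, IP1 accumulation read by HTRF (D2-conjugate and anti-IP1 cryptate, 20 min room temperature). EC50 from 4-parameter logistic fit; activity given as percentage of maximal AII effect.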

[6] = target: T1, hAT1R; experiment: BRET β-arrestin2 biosensor assay, higher receptor expression (hAT1R 5 ng/well), HEK293 cells; assay type: cell-based; details: for EC50: High AT1R Expression

Row | SMILES | EC50 [1] [nM] | EC50 [2] [nM] | DiscoveRx β-arrestin2 Ymax (%) [2] [%] | EC50 [3] [nM] | BRET P63 Ymax [4] [%] | EC50 [4] [nM] | IP-1 Ymax (%) [5] [%] | EC50 [5] [nM] | BRET β-Arrestin2 High AT1R Expression Ymax (%) [6] [%] | EC50 [6] [nM]
1 | CCCCc1nc(Cl)c(C(=O)O)n1Cc1ccc(-c2cc(-c3cc(OC)ccn3)ccc2-c2nn[nH]n2)cc1 [Example 421] | 92.5 | 9.4 | 38.5 |  |  |  |  |  |  | 
2 | CCCCc1nc(Cl)c(C(=O)O)n1Cc1ccc(-c2cc(-c3cc(N(C)C)ccn3)ccc2-c2nn[nH]n2)cc1 [Example 422, 2-butyl-4-chloro-1-((5′-(4-(dimethylamino)pyridin-2-yl)-2′-(2H-tetrazol-5-yl)-[1,1′-biphenyl]-4-yl)methyl)-1H-imidazole-5-carboxylic acid] | 209 | 68.7 | 26.7 |  |  |  |  |  |  | 
3 | CCOc1nc2cccc(C(=O)O)c2n1Cc1ccc(-c2cc(-c3ccc(OC)cn3)ccc2-c2noc(=O)[nH]2)cc1 [Example 308] | 27.3 | 29.1 | 51.8 |  |  |  |  |  |  | 
4 | CCCc1nc(CC)c(C(=O)OCc2oc(=O)oc2C)n1Cc1ccc(-c2cc(-c3ccccc3)ccc2-c2nn[nH]n2)cc1 [Example 412, (5-methyl-2-oxo-1,3-dioxol-4-yl)methyl 1-((6′-(2H-tetrazol-5-yl)-[1,1′:3′,1′″-terphenyl]-4-yl)methyl)-4-ethyl-2-propyl-1H-imidazole-5-carboxylate] | 62.7 | 11.7 | 64.1 |  |  |  |  |  |  | 
5 | CCCCc1nc(Cl)c(C(=O)O)n1Cc1ccc(-c2cc(-c3cc(C)ccn3)ccc2-c2nn[nH]n2)cc1 [Example 420] | 79.7 | 6.5 | 73.6 |  |  |  |  |  |  | 
6 | CCc1nc2c(C)cc(C)nc2n1Cc1ccc(-c2cc(Oc3cc(Cl)ccn3)ccc2-c2nn[nH]n2)cc1 [Example 251] |  | 33.6 | 20.2 | 8.2 | 6.7 | 11.1 | 10.9 | 182 | 57.2 | 10.6
7 | CCc1nc2c(C)cc(C)nc2n1Cc1ccc(-c2cc(Oc3ccccc3F)ccc2-c2noc(=O)[nH]2)cc1 [Example 214, 3-(4′-((2-Ethyl-5,7-dimethyl-3H-imidazo[4,5-b]pyridin-3-yl)methyl)-5-(2-fluorophenoxy)-[1,1′-biphenyl]-2-yl)-1,2,4-oxadiazol-5(4H)-one] |  | 76.1 | 74.1 | 15.9 | 43.3 | 35.6 | 50.0 | 89.6 | 86.5 | 4.2
8 | CCc1nc2c(C)cc(C)nc2n1Cc1ccc(-c2cc(Oc3ncccc3Cl)ccc2-c2nn[nH]n2)cc1 [Example 255] |  | 123 | 26.3 | 87.8 | 6.0 | 22.5 | 7.8 | 471 | 80.2 | 24.3
9 | CCc1nc2c(C)cc(C)nc2n1Cc1ccc(-c2cc(Oc3cccnc3)ccc2-c2nnn[nH]2)cc1 [Example 257] |  | 9 | 34.9 | 29.1 | 10.8 | 23.7 | 10.7 | 28.3 | 87.3 | 10
10 | CCc1nc2c(C)cc(C)nc2n1Cc1ccc(-c2cc(-c3ccccc3)ccc2-c2nnn[nH]2)cn1 [Example 179] |  | 40.7 | 58.3 | 61.4 | 11.6 | 52.3 | 12.2 | 81.7 | 90.6 | 20.7
11 | CCc1nc2c(C)cc(C)nc2n1Cc1ccc(-c2cc(Oc3ccc(F)cc3F)ccc2-c2nnn[nH]2)cc1 [Example 208] |  | 20.8 | 44.8 | 26.4 | 17.4 | 13.3 | 19.9 | 106 | 103.1 | 6
12 | CCc1nc2c(C)cc(C)nc2n1Cc1ccc(-c2cc(Oc3ccccc3F)ccc2-c2nnn[nH]2)cc1 [Example 205, 2-Ethyl-3-((5′-(2-fluorophenoxy)-2′-(1H-tetrazol-5-yl)-[1,1′-biphenyl]-4-yl)methyl)-5,7-dimethyl-3H-imidazo[4,5-b]pyridine] |  | 31.8 | 42.2 | 21.3 | 20.2 | 18.4 | 16.7 | 70.2 | 92.1 | 4.8

— patent US12037324B2, “Biarylmethyl heterocycles” (Université de Montréal, priority 2016, dated 2024)
